# Experimental data reported in patent publication US9169254B2, “Spiroimidazolone derivative” (Chugai Seiyaku Kabushiki Kaisha, priority 2009, dated 2015).
# Target: T1, human PTH1 receptor (Homo sapiens, UniProt Q03431)
# T1 sequence (Q03431 27-593): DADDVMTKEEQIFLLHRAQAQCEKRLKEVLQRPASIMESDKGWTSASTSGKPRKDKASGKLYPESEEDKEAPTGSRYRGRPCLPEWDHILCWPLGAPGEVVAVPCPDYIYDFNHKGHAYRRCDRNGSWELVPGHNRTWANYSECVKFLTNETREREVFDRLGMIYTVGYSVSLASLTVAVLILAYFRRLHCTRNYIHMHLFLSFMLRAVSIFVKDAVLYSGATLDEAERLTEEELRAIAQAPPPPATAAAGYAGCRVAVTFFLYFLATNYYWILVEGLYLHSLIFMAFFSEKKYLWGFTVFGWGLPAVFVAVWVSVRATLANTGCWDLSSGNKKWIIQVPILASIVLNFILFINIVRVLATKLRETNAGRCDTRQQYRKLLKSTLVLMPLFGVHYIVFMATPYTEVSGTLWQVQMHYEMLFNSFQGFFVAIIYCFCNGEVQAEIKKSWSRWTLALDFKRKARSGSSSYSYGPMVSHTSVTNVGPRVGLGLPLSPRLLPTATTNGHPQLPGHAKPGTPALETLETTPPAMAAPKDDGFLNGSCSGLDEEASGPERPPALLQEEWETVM
# Test: In vitro cAMP signal activity in HKRK-B7 cells (LLC-PK1 cells overexpressing the human PTH1 receptor)
# Format: cell-based
# Conditions: HKRK-B7 cells; compound at 1×10^−3 M; cAMP produced as percentage of that produced by hPTH(1-34) at 100 nM
row,SMILES,cAMP production activity (%)
1,"Cc1cc(N(C)C(N)=O)cc(C)c1CCS(=O)(=O)N1CCC2(CC1)N=C(C1C3CCCC1CCC3)NC2=O (stereo not drawn) [Compound 1053, 1-{4-[2-(2-bicyclo[3.3.1]non-9-yl-4-oxo-1,3,8-triaza-spiro[4.5]dec-1-ene-8-sulfonyl)-ethyl]-3,5-dimethyl-phenyl}-1-methyl-urea]",70%
2,"Cc1cc(N(C)C(N)=O)cc(C)c1CCS(=O)(=O)N1CCC2(CC1)N=C(C1C[C@H]3CC[C@@H](C1)C3)NC2=O (stereo partly drawn) [Compound 1054, 1-{4-[2-((1R,5S)-2-bicyclo[3.2.1]oct-3-yl-4-oxo-1,3,8-triaza-spiro[4.5]dec-1-ene-8-sulfonyl)-ethyl]-3,5-dimethyl-phenyl}-1-methyl-urea]",80%
3,"Cc1cc(N(C)C(N)=O)cc(C)c1CCS(=O)(=O)N1CCC2(CC1)N=C(C1CCC(C)C1)NC2=O (stereo not drawn) [Compound 1055, 1-(3,5-dimethyl-4-{2-[2-(3-methyl-cyclopentyl)-4-oxo-1,3,8-triaza-spiro[4.5]dec-1-ene-8-sulfonyl]-ethyl}-phenyl)-1-methyl-urea]",84%
4,"Cc1cc(N(C)C(N)=O)cc(C)c1CCS(=O)(=O)N1CCC2(CC1)N=C(C1C3CCC1CC3)NC2=O (stereo not drawn) [Compound 1056, 1-{4-[2-(2-bicyclo[2.2.1]hept-7-yl-4-oxo-1,3,8-triaza-spiro[4.5]dec-1-ene-8-sulfonyl)-ethyl]-3,5-dimethyl-phenyl}-1-methyl-urea]",94%
5,"CCCCCC[C@H]1CCCC[C@@H]1C1=NC2(CCN(S(=O)(=O)CCc3c(C)cc(N(C)C(N)=O)cc3C)CC2)C(=O)N1 [Compound 1057, 1-(4-{2-[2-((1S,2S)-2-hexyl-cyclohexyl)-4-oxo-1,3,8-triaza-spiro[4.5]dec-1-ene-8-sulfonyl]-ethyl}-3,5-dimethyl-phenyl)-1-methyl-urea]",100%
6,"Cc1cc(N(C)C(N)=O)cc(C)c1CCS(=O)(=O)N1CCC2(CC1)N=C(C1CCC3(CC1)CC3)NC2=O [Compound 1058, 1-{3,5-dimethyl-4-[2-(4-oxo-2-spiro[2.5]oct-6-yl-1,3,8-triaza-spiro[4.5]dec-1-ene-8-sulfonyl)-ethyl]-phenyl}-1-methyl-urea]",133%
7,"Cc1cc(N(C)C(N)=O)cc(C)c1CCS(=O)(=O)N1CCC2(CC1)N=C(C1CCC(=C(F)F)CC1)NC2=O (stereo not drawn) [Compound 1059, 1-(4-{2-[2-(4-Difluoromethylene-cyclohexyl)-4-oxo-1,3,8-triaza-spiro[4.5]dec-1-ene-8-sulfonyl]-ethyl}-3,5-dimethyl-phenyl)-1-methyl-urea]",116%
8,"CC(=O)Nc1ccc(CCS(=O)(=O)N2CCC3(CC2)N=C(C2CCC(CC(F)F)CC2)NC3=O)c(C)c1 (stereo not drawn) [Compound 1060, N-[4-(2-{2-[4-(2,2-Difluoro-ethyl)-cyclohexyl]-4-oxo-1,3,8-triaza-spiro[4.5]dec-1-ene-8-sulfonyl}-ethyl)-3-methyl-phenyl]-acetamide]",58%
9,"CC(=O)Nc1ccc(CCS(=O)(=O)N2CCC3(CC2)N=C([C@H]2CC[C@H](CCF)CC2)NC3=O)c(C)c1 [Compound 1061, N-[4-(2-{2-[4-(2-fluoro-ethyl)-cyclohexyl]-4-oxo-1,3,8-triaza-spiro[4.5]dec-1-ene-8-sulfonyl}-ethyl)-3-methyl-phenyl]-acetamide]",55%
10,"CCCC[C@]1(F)CC[C@@H](C2=NC3(CCN(S(=O)(=O)CCc4ccc(NC(C)=O)cc4C)CC3)C(=O)N2)CC1 [Compound 1062, N-(4-{2-[2-(4-butyl-4-fluoro-cyclohexyl)-4-oxo-1,3,8-triaza-spiro[4.5]dec-1-ene-8-sulfonyl]-ethyl}-3-methyl-phenyl)-acetamide]",65%
11,"CC(=O)Nc1ccc(CCS(=O)(=O)N2CCC3(CC2)N=C(C2CCC(/C=C/CF)CC2)NC3=O)c(C)c1 (stereo not drawn) [Compound 1063, N-[4-(2-{2-[4-((E)-3-fluoro-propenyl)-cyclohexyl]-4-oxo-1,3,8-triaza-spiro[4.5]dec-1-ene-8-sulfonyl}-ethyl)-3-methyl-phenyl]-acetamide]",72%
12,"CC(=O)Nc1ccc(CCS(=O)(=O)N2CCC3(CC2)N=C(C2CCC(CCCF)CC2)NC3=O)c(C)c1 (stereo not drawn) [Compound 1064, N-[4-(2-{2-[4-(3-Fluoro-propyl)-cyclohexyl]-4-oxo-1,3,8-triaza-spiro[4.5]dec-1-ene-8-sulfonyl}-ethyl)-3-methyl-phenyl]-acetamide]",73%
13,"CC(=O)Nc1ccc(CCS(=O)(=O)N2CCC3(CC2)N=C(C2CCC(CCCCl)CC2)NC3=O)c(C)c1 (stereo not drawn) [Compound 1065, N-[4-(2-{2-[4-(3-chloro-propyl)-cyclohexyl]-4-oxo-1,3,8-triaza-spiro[4.5]dec-1-ene-8-sulfonyl}-ethyl)-3-methyl-phenyl]-acetamide]",83%
14,"CC(=O)Nc1ccc(CCS(=O)(=O)N2CCC3(CC2)N=C(C2CCC(=CCCF)CC2)NC3=O)c(C)c1 (stereo not drawn) [Compound 1066, N-[4-(2-{2-[4-(3-Fluoro-propylidene)-cyclohexyl]-4-oxo-1,3,8-triaza-spiro[4.5]dec-1-ene-8-sulfonyl}-ethyl)-3-methyl-phenyl]-acetamide]",83%
15,"CC(=O)Nc1ccc(CCS(=O)(=O)N2CCC3(CC2)N=C([C@H]2CC[C@H](CC=C(F)F)CC2)NC3=O)c(C)c1 [Compound 1067, N-[4-(2-{2-[4-(3,3-difluoro-allyl)-cyclohexyl]-4-oxo-1,3,8-triaza-spiro[4.5]dec-1-ene-8-sulfonyl}-ethyl)-3-methyl-phenyl]-acetamide]",69%
16,"CC(=O)Nc1ccc(CCS(=O)(=O)N2CCC3(CC2)N=C([C@H]2CC[C@@H](CC=C(F)F)CC2)NC3=O)c(C)c1 [Compound 1068, N-[4-(2-{2-[4-(3,3-difluoro-allyl)-cyclohexyl]-4-oxo-1,3,8-triaza-spiro[4.5]dec-1-ene-8-sulfonyl}-ethyl)-3-methyl-phenyl]-acetamide]",68%
17,"CC(=O)Nc1ccc(CCS(=O)(=O)N2CCC3(CC2)N=C([C@H]2CC[C@@H](CC(F)(F)C(F)(F)F)CC2)NC3=O)c(C)c1 [Compound 1069, N-[3-methyl-4-(2-{4-oxo-2-[4-(2,2,3,3,3-pentafluoro-propyl)-cyclohexyl]-1,3,8-triaza-spiro[4.5]dec-1-ene-8-sulfonyl}-ethyl)-phenyl]-acetamide]",79%
18,"CC(=O)Nc1ccc(CCS(=O)(=O)N2CCC3(CC2)N=C([C@H]2CC[C@@H](C/C=C/F)CC2)NC3=O)c(C)c1 [Compound 1070, N-[4-(2-{2-[4-((E)-3-fluoro-allyl)-cyclohexyl]-4-oxo-1,3,8-triaza-spiro[4.5]dec-1-ene-8-sulfonyl}-ethyl)-3-methyl-phenyl]-acetamide]",69%
19,"CC(=O)Nc1ccc(CCS(=O)(=O)N2CCC3(CC2)N=C([C@H]2CC[C@@H](CC(F)F)CC2)NC3=O)c(C)c1 [Compound 1071, N-[4-(2-{2-[4-(2,2-difluoro-ethyl)-cyclohexyl]-4-oxo-1,3,8-triaza-spiro[4.5]dec-1-ene-8-sulfonyl}-ethyl)-3-methyl-phenyl]-acetamide]",60%
20,"CC(=O)Nc1ccc(CCS(=O)(=O)N2CCC3(CC2)N=C([C@H]2CC[C@@H](CCF)CC2)NC3=O)c(C)c1 [Compound 1072, N-[4-(2-{2-[4-(2-fluoro-ethyl)-cyclohexyl]-4-oxo-1,3,8-triaza-spiro[4.5]dec-1-ene-8-sulfonyl}-ethyl)-3-methyl-phenyl]-acetamide]",54%
21,"CC(=O)Nc1ccc(CCS(=O)(=O)N2CCC3(CC2)N=C(C2CCC(F)(CCCF)CC2)NC3=O)c(C)c1 (stereo not drawn) [Compound 1073, N-[4-(2-{2-[4-fluoro-4-(3-fluoro-propyl)-cyclohexyl]-4-oxo-1,3,8-triaza-spiro[4.5]dec-1-ene-8-sulfonyl}-ethyl)-3-methyl-phenyl]-acetamide]",66%
22,"CC(=O)Nc1ccc(CCS(=O)(=O)N2CCC3(CC2)N=C(C2CCC(C(F)F)CC2)NC3=O)c(C)c1 (stereo not drawn) [Compound 1075, N-(4-{2-[2-(4-difluoromethyl-cyclohexyl)-4-oxo-1,3,8-triaza-spiro[4.5]dec-1-ene-8-sulfonyl]-ethyl}-3-methyl-phenyl)-acetamide]",69%
23,"CC(=O)Nc1ccc(CCS(=O)(=O)N2CCC3(CC2)N=C(C2CCC(=CCC(F)F)CC2)NC3=O)c(C)c1 (stereo not drawn) [Compound 1076, N-[4-(2-{2-[4-(3,3-difluoro-propylidene)-cyclohexyl]-4-oxo-1,3,8-triaza-spiro[4.5]dec-1-ene-8-sulfonyl}-ethyl)-3-methyl-phenyl]-acetamide]",88%

# Same assay, conditions: HKRK-B7 cells; compound at 1×10^−3 M; cAMP produced as percentage of that produced by hPTH(1-34) at 100 nM; 0.1 µM
row,SMILES,cAMP production activity (%)
1,"C#C[C@H]1CC[C@@H](C2=NC3(CCN(S(=O)(=O)CCc4ccc(NC(C)=O)cc4C)CC3)C(=O)N2)CC1 [Compound 1074, N-(4-{2-[2-(4-ethynyl-cyclohexyl)-4-oxo-1,3,8-triaza-spiro[4.5]dec-1-ene-8-sulfonyl]-ethyl}-3-methyl-phenyl)-acetamide]",66%
